Assay results: ChEMBL document CHEMBL1143132, “Synthesis and protective effects of coumarin derivatives against oxidative stress induced by doxorubicin” (2008)
Active and inactive are the calls of the source. The calls are words filed in the database; no cut-off is given here.

Key:
MCF7 [1] = assay: Antioxidant activity in human MCF7 cells assessed as reduction of H2O2 production at 100 uM; assay type: functional, cell-based
MCF7 [2] = assay: Protective effect against doxorubicin-induced oxidative stress in human MCF7 cells assessed as reduction of ROS level at 25 uM; assay type: functional, cell-based
MCF7 [3] = assay: Cytotoxicity against human MCF7 cells at 100 uM; assay type: functional

Structure (SMILES)	Activity (MCF7 [1])	Activity (MCF7 [2])	Activity (MCF7 [3]) [%]
Cc1cc(=O)oc2c(O)c(O)ccc12	Active	Active	–
Cc1c(Cl)c(=O)oc2c(O)c(O)ccc12	Active	–	–
CCCCCCCCCCCCSCc1cc(=O)oc2c(OC(C)=O)c(OC(C)=O)ccc12	Active	–	70
